Experimental data: the supplement of paper PMC7801607

System: Plasmodium falciparum Dd2 asexual blood stage

SMILES	IC50 [µM]
Nc1nc2c(Cc3cccnc3)c[nH]c2c(=O)[nH]1	> 5
CCC[C@H](NC(=O)[C@@H]1[C@H]2CCC[C@H]2CN1C(=O)[C@@H](NC(=O)[C@@H](NC(=O)c1cnccn1)C1CCCCC1)C(C)(C)C)C(=O)C(=O)NC1CC1	> 5
COc1ccccc1CN[C@H]1C2CCN(CC2)[C@H]1C(c1ccccc1)c1ccccc1	2.23
NC(=O)c1ccc(I)c([N+](=O)[O-])c1	> 5
O=S(=O)(NCB(O)O)c1cc2c(Cl)ccc(Cl)c2s1	> 5
COc1cc(Cc2cnc(N)nc2N)c2c(c1OC)OC(C1CC1)C=C2 (stereo not given)	> 5
Cc1cc(C)n(O)c(=O)c1	> 5
Cc1cc(CCCOc2c(C)cc(-c3noc(C(F)(F)F)n3)cc2C)on1	> 5
O=C(NN1C(=O)[C@@H]2C3C=CC([C@H]4C[C@@H]34)[C@@H]2C1=O)c1ccc(C(F)(F)F)cc1	> 5
C[C@@]1(O)[C@H](O)[C@@H](CO)O[C@H]1n1ccc2c(N)ncnc21	> 5
NC(=O)[C@@H]1CC[C@@H]2CN1C(=O)N2OS(=O)(=O)O	> 5
Nc1ccc2oc(=O)ccc2c1I	> 5
CC1(C)C[C@H]1C(=O)N/C(=C\CCCCSC[C@@H](N)C(=O)O)C(=O)O	> 5
CNC(=O)C1O[C@@H](n2cnc3c(NCc4cccc(I)c4)nc(Cl)nc32)[C@H](O)[C@@H]1O (stereo not given in full)	> 5
CC(=O)O[C@H]1C[C@@]2(C)[C@@H](C[C@@H](O)[C@H]3[C@@]4(C)CC[C@@H](O)[C@@H](C)[C@@H]4CC[C@@]32C)/C1=C(\CCC=C(C)C)C(=O)O	> 5
CC(C)C(=O)N[C@H]1[C@H]([C@H](O)[C@H](O)CO)OC(C(=O)O)=C[C@@H]1N=[N+]=[N-]	> 5
OB1OCc2c1ccc(Cl)c2F	> 5
CCN(CC)S(=O)(=O)c1ccc(Cl)c(C(=O)Nc2sc3c(c2C#N)CCCC3)c1	> 5
NNC(=O)c1ccncc1	> 5
CC(C)CCN1C(=O)C(C2=NS(=O)(=O)c3cc(NS(C)(=O)=O)ccc3N2)=C(O)[C@@H]2[C@H]3CC[C@H](C3)[C@@H]21	> 5
C=C(C)[C@@H]1CC[C@]2(C(=O)O)CC[C@]3(C)[C@H](CC[C@@H]4[C@@]5(C)CC[C@H](O)C(C)(C)[C@@H]5CC[C@]43C)[C@@H]12	> 5

SMILES	IC50 [µM]
O=C1NC(=O)C(Br)=C1Br	> 5
CSC[C@H]1CN(Cc2c[nH]c3c(N)ncnc23)C[C@@H]1O	> 5
NCc1ccc(S(N)(=O)=O)cc1	> 5
O=C(NO)C1(CS(=O)(=O)c2ccc(Oc3ccc(Cl)cc3)cc2)CCOCC1	> 5
NC1(C(=O)O)CCP(=O)(O)CC1 (stereo not given)	> 5
N[C@@H]1CN(c2c(F)cc3c(=O)c(C(=O)O)cn([C@@H]4C[C@@H]4F)c3c2Cl)CC12CC2	> 5
O=C(NC12CC3CC(CC(C3)C1)C2)c1cc2ccccc2[nH]1	> 5
NCCCc1ccccc1C(=O)Nc1ncc([N+](=O)O)s1	> 5
Nc1nc(O)ncc1F	> 5
CNCC(=O)OCc1cccnc1N(C)C(=O)OC(C)[n+]1cnn(C[C@](O)(c2cc(F)ccc2F)[C@@H](C)c2nc(-c3ccc(C#N)cc3)cs2)c1 (stereo not given in full)	> 5
Cc1cccc(CC(=O)N[C@H]2CCOC2=O)c1	> 5
Cc1cc(C2CCCCC2)n(O)c(=O)c1	4.8
CS(=O)(=O)c1ccc(Oc2ccc(Cl)cc2)cc1	> 5
CC(N)C(=O)NC(CCCCN)C(=O)NC(CCCNC(=N)N)C(=O)NC(Cc1c[nH]cn1)C(=O)NC(Cc1c[nH]cn1)C(=O)NCC(=O)NC(Cc1ccc(O)cc1)C(=O)NC(CCCCN)C(=O)NC(CCCNC(=N)N)C(=O)NC(CCCCN)C(=O)NC(Cc1ccccc1)C(=O)NC(Cc1c[nH]cn1)C(N)=O (stereo not given)	> 5
O=[N+]([O-])/C(Br)=C/c1ccc(Br)o1	> 5
CC(C)c1cc2c(cc1S(=O)(=O)O)[C@@]1(C)CCC[C@@](C)(C(=O)O)[C@@H]1CC2	> 5
C[C@@H]1O[C@@H]1P(=O)(O)O	> 5
Nc1nc(O)c2ncn(COC(CO)CO)c2n1	> 5
COC(=O)Nc1nc2ccccc2[nH]1	> 5
[N-]=[N+]=N[C@H]1C[C@H](n2ccc(=O)[nH]c2=O)O[C@@H]1CO	> 5
O=C(NCc1ncc(C(F)(F)F)cc1Cl)c1c(Cl)cccc1Cl	> 5

Now from value to compound:

IC50 [µM]	SMILES
> 5	O=C(O)c1sccc1S(=O)(=O)n1ccc2cc(Br)ccc21
> 5	Nc1cccc(-c2nc(N)nc(NC3Cc4ccccc4C3)n2)c1
> 5	CN(Cc1ccc(C(C)(C)C)cc1)Cc1cccc2ccccc12
> 5	O=C(O)C(Cc1c[nH]c2ccccc12)N1C(=O)c2ccccc2C1=O (stereo not given)
> 5	O=C(Nc1ccccc1)N(Cc1cc(Br)ccc1O)c1ccc(F)cc1
> 5	O=C(O)c1cc(-c2ccc(Br)cc2)nc2ccc(Cl)cc12
> 5	COC(=O)Nc1nc2cc(S(=O)c3ccccc3)ccc2[nH]1 (stereo not given)
> 5	c1cnc(NCc2ccc(CNc3ncccn3)cc2)nc1
> 5	Cc1[nH]c2ccccc2c1CC(=O)N[C@@H](Cc1ccccc1)C(=O)N(C)c1ccccc1
> 5	Nc1nnc(-c2ccc(Cl)cc2)s1
> 5	CC(C)(C)NC(=O)[C@@H]1C[C@@H]2CCCC[C@@H]2CN1C[C@@H](O)[C@H](Cc1ccccc1)NC(=O)[C@H](CC(N)=O)NC(=O)c1ccc2ccccc2n1
> 5	Nc1nc(C(F)(F)F)cc2c1[nH]c(=O)n2Cc1ccccc1
> 5	COc1cc(C2C3=C(CC(C)(C)CC3=O)Nc3ccccc3N2C(C)=O)ccc1OCc1ccccc1 (stereo not given)
> 5	COc1cc(NC(=O)CN2C(=O)NC(c3ccccc3)(c3ccccc3)C2=O)cc(OC)c1
> 5	Cc1cc(-c2ccccc2)c(C(=O)C(=O)Nc2ccc(N3CCN(c4ncc(F)cn4)CC3)cc2)n1C
> 5	C[C@@H](c1nc(-c2ccc(C#N)cc2)cs1)[C@](O)(Cn1cncn1)c1ccc(F)cc1F
> 5	O=C(O)c1ccccc1Sc1ncnc2sc3c(c12)CCC3
> 5	Cn1c2ccccc2c(=O)c2c(O)cccc21
> 5	O=C(O)C[C@H]1CC[C@H](c2ccc(-c3ccc(Nc4ccc(C(F)(F)F)nc4)cn3)cc2)CC1
> 5	c1ccc(Cn2c(-c3ccccn3)nc3ccccc32)cc1

IC50 [µM]	SMILES
> 5	COc1ccc(NC(=O)c2cc3ccccn3n2)cc1
> 5	N[C@H](CCC(=O)N[C@@H](Cc1c[nH]c2ccccc12)C(=O)O)C(=O)O
> 5	CCOC(=O)N1CCN(c2ccc(Cl)cc2)CC1
> 5	CN(C)CCNC(=O)c1cccc2cccnc12
> 5	O=C(O)[C@H]1C2CCC(CC2)[C@@H]1Nc1nc(-c2c[nH]c3ncc(F)cc23)ncc1F
> 5	Cc1c(F)cccc1NC(=O)Nc1ccc(Cl)c(S(=O)(=O)[C@H]2CCCNC2)c1O
> 5	N#CCN1C(=O)COc2cc(F)c(N3C(=O)c4ccccc4C3=O)cc21
> 5	FC(F)(F)c1cc(C(F)(F)F)c2ccc3nc(-c4nnco4)cn3c2n1
> 5	O=C(/C=C\n1cnc(-c2cc(C(F)(F)F)cc(C(F)(F)F)c2)n1)NNc1ccccn1
> 5	Nc1nnnn1CCOc1c2[nH]c3ccc(Cl)cc3c2cc2c1[nH]c1ccc(Cl)cc12
> 5	Cc1onc(-c2ccccc2Cl)c1C(=O)N[C@@H]1C(=O)N2[C@@H]1SC(C)(C)[C@@H]2C(=O)O
> 5	Cc1cc(CCOc2c(C)cc(-c3nnn(C)n3)cc2C)on1
> 5	O=C(CCc1ccc2c(c1)OCO2)NCc1ccc(-c2ccccc2F)cc1
> 5	CC[C@H](CO)Nc1nc(NCc2ccccc2)c2ncn(C(C)C)c2n1
> 5	O=C1CCC(N2C(=O)c3ccccc3C2=O)C(=O)N1 (stereo not given)
> 5	CCCC(=O)OCCc1ccccc1
> 5	C[C@H](NC(CC(=O)c1ccccc1C(F)(F)F)C(=O)O)c1ccccc1 (stereo not given in full)
> 5	Cc1ccc(N2CCC(CCOc3ccc(S(C)(=O)=O)cc3)CC2)nn1
> 5	O=C(NNC(=S)Nc1ccc(Cl)cc1)c1ccncc1
> 5	Cc1nc(N(C)C(=O)Cc2ccc(-c3ccccn3)cc2)sc1S(N)(=O)=O

IC50 [µM]	SMILES
> 5	CC(=O)NC[C@H]1CN(c2ccc(N3CCSCC3)c(F)c2)C(=O)O1
> 5	Nc1nc(=O)c(Br)c(-c2cccc(Cl)c2)[nH]1
> 5	Cc1cc(Nc2ccc(F)cc2)nc(SCc2nc3ccccc3[nH]2)n1
> 5	CCc1oc2ccccc2c1C(=O)c1ccc(O)cc1
> 5	C[C@H]1COc2c(N3CCN(C)CC3)c(F)cc3c(=O)c(C(=O)O)cn1c23
> 5	O=C(c1ccc(F)cc1)N1CCN2C(=O)c3ccccc3C12c1ccccc1 (stereo not given)
> 5	Cc1nc2ccc(Cl)cc2c(-c2ccccc2)c1CC(=O)O
> 5	CC(=O)N1c2ccccc2NC2=C(C(=O)CC(C)(C)C2)C1c1ccc(OCc2ccccc2)cc1 (stereo not given)
> 5	Nc1cc(-c2nc3ccccc3[nH]2)n[nH]c1=O
> 5	Nc1ccc(-c2nc3cc(C(F)(F)F)ccc3n2C23CC4CC(CC(C4)C2)C3)cc1
> 5	Cc1c(N)cccc1Cn1ccc(OCCc2cccs2)cc1=O
> 5	c1ccc(-c2nnc3c4ccccc4c(N4CCNCC4)nn23)cc1
4.35	CCC(C)n1ncn(-c2ccc(N3CCN(c4ccc(OCC5COC(Cn6cncn6)(c6ccc(Cl)cc6Cl)O5)cc4)CC3)cc2)c1=O (stereo not given)
4.29	O=C1c2cccc3cccc(c23)C(=O)N1CC1CO1 (stereo not given)
> 5	O=C(O)c1cc(-c2ccccc2)nc2ccccc12
> 5	NC(=O)c1ccccc1NC(=O)c1ccc(C(=O)Nc2ccccc2C(N)=O)cc1
> 5	O=C(O)c1ccc(-c2ccc(O[C@H]3O[C@H](CO)[C@@H](O)[C@H](O)[C@@H]3O)cc2)cc1
> 5	COc1ccc(C(C)(C)C)cc1NC(=O)C(=O)c1ccc(OCCN2CCOCC2)c2ccccc12
